Measured values reported in ChEMBL document CHEMBL1201862, “PubChem BioAssay data set” (2004).
Several values for one entry are separate records, joined by “and”; a condition that tells them apart may be missing. Identical values can stand only once.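 Exposure lasted 48 hours, with cells grown in 96-well plates and compounds tested at five concentrations. GI50 = concentration required for 50% inhibition of growth.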 Activity calls are given as the source filed them. Cut-off read from the data, not from the text of the source: active = GI50 up to about 1.1 µM and inactive = higher.

Assays:
Assay in all cases: NCI-60 cell line screen, 48 h
LXFL 529 = system: LXFL 529
CCRF-CEM = system: CCRF-CEM
SN12C = system: SN12C
HOP-92 = system: HOP-92
NCI-H522 = system: NCI-H522
SF-268 = system: SF-268
HCT-15 = system: HCT-15
UACC-62 = system: UACC-62
A549 = system: A549
A498 = system: A498
U-251 = system: U-251
Malme-3M = system: Malme-3M
OVCAR-4 = system: OVCAR-4
SK-MEL-5 = system: SK-MEL-5
SK-MEL-2 = system: SK-MEL-2
HOP-62 = system: HOP-62
EKVX = system: EKVX
RXF 393 = system: RXF 393
MCF7 = system: MCF7
MDA-N = system: MDA-N

Row | Compound | GI50 (LXFL 529) | GI50 (CCRF-CEM) | GI50 (SN12C) | GI50 (HOP-92) | GI50 (NCI-H522) | GI50 (SF-268) | GI50 (HCT-15) | GI50 (UACC-62) | GI50 (A549) | GI50 (A498) | GI50 (U-251) | GI50 (Malme-3M) | GI50 (OVCAR-4) | GI50 (SK-MEL-5) | GI50 (SK-MEL-2) | GI50 (HOP-62) | GI50 (EKVX) | GI50 (RXF 393) | GI50 (MCF7) | GI50 (MDA-N)
1 | CC(C)(O)[C@@H]1CC[C@@]2(C)CCC[C@H](O)[C@H]2C1 | > 100 µM (inactive) | > 100 µM (inactive) | > 100 µM (inactive) | > 100 µM (inactive) | > 100 µM (inactive) | > 100 µM (inactive) | > 100 µM | > 100 µM (inactive) | > 100 µM (inactive) | > 100 µM (inactive) | > 100 µM (inactive) | > 100 µM (inactive) | > 100 µM (inactive) | > 100 µM (inactive) | > 100 µM (inactive) | > 100 µM (inactive) |  |  |  | 
2 | c1ccc(C2Nc3ccccc3C3OCCCC23)cc1 (stereo not drawn) | 7.78 µM (inactive) | 20.2 µM (inactive) | 38.5 µM (inactive) | 26.4 µM (inactive) |  | 25.6 µM (inactive) | 27 µM | 11.6 µM (inactive) | 20.5 µM (inactive) | 21.2 µM (inactive) | 17.8 µM (inactive) | 30.7 µM (inactive) | 47.3 µM (inactive) | 5.06 µM (inactive) | 30.7 µM (inactive) |  | 20.9 µM (inactive) | 18.7 µM (inactive) |  | 
3 | Cc1ccc(/C=N/NS(=O)(=O)c2ccccc2)c(C)c1 | > 100 µM (inactive) | 78.9 µM (inactive) | > 100 µM (inactive) | > 100 µM (inactive) |  | > 100 µM (inactive) | > 100 µM | > 100 µM (inactive) | > 100 µM (inactive) | > 100 µM (inactive) | > 100 µM (inactive) | > 100 µM (inactive) | > 100 µM (inactive) | > 100 µM (inactive) | > 100 µM (inactive) | > 100 µM (inactive) | > 100 µM (inactive) | > 100 µM (inactive) |  | 
4 | CCOC(=O)/C(=C/c1ccc(C(F)(F)F)cc1)N(CC)CC | 51.6 µM (inactive) | > 100 µM (inactive) | 53.3 µM (inactive) | 17.5 µM (inactive) | 31.6 µM (inactive) | 72.3 µM (inactive) | 40.6 µM | 35.4 µM (inactive) | 38.8 µM (inactive) | > 100 µM (inactive) | 41 µM (inactive) | 57.5 µM (inactive) | 78.9 µM (inactive) | 32.7 µM (inactive) | 25.7 µM (inactive) | 42.6 µM (inactive) | > 100 µM (inactive) |  |  | 
5 | O=C1c2ccccc2-c2c3c(cc4ccnc1c24)OCO3 [LIRIODENINE] | 5.89 µM (inactive) and 6.52 µM (inactive) | 4.1 µM (inactive) and 2.7 µM (inactive) | 4.98 µM (inactive) and 5.82 µM (inactive) | 8.69 µM (inactive) and 5.61 µM (inactive) |  | 6.14 µM (inactive) and 6.03 µM (inactive) | 4.9 µM and 4.42 µM | 4.57 µM (inactive) and 2.77 µM (inactive) | 3.48 µM (inactive) and 3.47 µM (inactive) | 3.48 µM (inactive) | 6.32 µM (inactive) and 5.45 µM (inactive) | 3.59 µM (inactive) and 3.03 µM (inactive) | 5.07 µM (inactive) and 8.24 µM (inactive) | 2.84 µM (inactive) | 4.19 µM (inactive) and 6 µM (inactive) | 3.89 µM (inactive) | 3.46 µM (inactive) and 5.15 µM (inactive) | 5.55 µM (inactive) and 5.06 µM (inactive) |  | 
6 | CCC(C)NC1=C(NC(C)=O)C(=O)c2ccccc2C1=O (stereo not drawn) | 54.8 µM (inactive) | 21.8 µM (inactive) | > 75 µM (inactive) | > 75 µM (inactive) |  | > 75 µM (inactive) | 46.1 µM | > 75 µM (inactive) | > 75 µM (inactive) | > 75 µM (inactive) | > 75 µM (inactive) | > 75 µM (inactive) | > 75 µM (inactive) | > 75 µM (inactive) | > 75 µM (inactive) | > 75 µM (inactive) | > 75 µM (inactive) | > 75 µM (inactive) |  | 
7 | O=C(O)C1Cc2[nH]cnc2CN1 (stereo not drawn) | > 100 µM (inactive) | > 100 µM (inactive) | > 100 µM (inactive) | > 100 µM (inactive) | > 100 µM (inactive) | > 100 µM (inactive) | > 100 µM | > 100 µM (inactive) | > 100 µM (inactive) | > 100 µM (inactive) | > 100 µM (inactive) | > 100 µM (inactive) | > 100 µM (inactive) | > 100 µM (inactive) | > 100 µM (inactive) |  | > 100 µM (inactive) |  |  | 
8 | C=CCc1cc(OC)c2c(c1)C(O)CC(c1ccccc1)O2 (stereo not drawn) | > 100 µM (inactive) | > 100 µM (inactive) | > 100 µM (inactive) | > 100 µM (inactive) | > 100 µM (inactive) | > 100 µM (inactive) | 96.6 µM | > 100 µM (inactive) | > 100 µM (inactive) |  | > 100 µM (inactive) | > 100 µM (inactive) | > 100 µM (inactive) | > 100 µM (inactive) | > 100 µM (inactive) | > 100 µM (inactive) | > 100 µM (inactive) |  |  | 
9 | COc1ccc(N2C(=O)C3c4[nH]c5ccccc5c4C4CCCCCCC4C3C2=O)cc1 (stereo not drawn) | 6.08 µM (inactive) | 4.12 µM (inactive) | 4.79 µM (inactive) | 13.8 µM (inactive) | 13.9 µM (inactive) | 12.7 µM (inactive) | 6.71 µM | 15.9 µM (inactive) | 6.76 µM (inactive) | 25.5 µM (inactive) | 4.06 µM (inactive) | 16.6 µM (inactive) | 15.9 µM (inactive) | 23.8 µM (inactive) | 26.2 µM (inactive) | 8.22 µM (inactive) | 14 µM (inactive) |  |  | 
10 | Cn1c(=S)c2nc(SCCN3C(=O)c4ccccc4C3=O)[nH]c2n(C)c1=O |  | 17.3 µM (inactive) | > 100 µM (inactive) | > 100 µM (inactive) | 5.27 µM (inactive) | > 100 µM (inactive) | > 100 µM | > 100 µM (inactive) | > 100 µM (inactive) | > 100 µM (inactive) | > 100 µM (inactive) | > 100 µM (inactive) | > 100 µM (inactive) | > 100 µM (inactive) | > 100 µM (inactive) | > 100 µM (inactive) | > 100 µM (inactive) | > 100 µM (inactive) | 32.7 µM (inactive) | > 100 µM (inactive)
11 | Cc1ccc2c(C(=O)c3c(C)n(CCN4CCOCC4)c4ccccc34)cccc2c1 |  | 1.79 µM (inactive) | 31.3 µM (inactive) | 19.1 µM (inactive) | 10.6 µM (inactive) | 11.7 µM (inactive) | 9.35 µM | 14.3 µM (inactive) | 24.4 µM (inactive) | 28.6 µM (inactive) | 12.9 µM (inactive) | 5.98 µM (inactive) | 15.4 µM (inactive) | 0.581 µM (active) | 17.4 µM (inactive) | 27.3 µM (inactive) | 20.5 µM (inactive) | 13.9 µM (inactive) | 3.53 µM (inactive) | 4.06 µM (inactive)
12 | OC1c2ccccc2C2(O)C1C(c1ccccc1)C(c1ccccc1)C2(O)c1ccccc1 (stereo not drawn) | 9.82 µM (inactive) | 8.18 µM (inactive) | 11.4 µM (inactive) | 7.33 µM (inactive) | 6.34 µM (inactive) | 6.79 µM (inactive) | 3.06 µM | 10.4 µM (inactive) | 11.4 µM (inactive) |  | 8.17 µM (inactive) | 12.7 µM (inactive) | 19.5 µM (inactive) | 7.13 µM (inactive) | 10.3 µM (inactive) | 13.2 µM (inactive) | 15.4 µM (inactive) | 16 µM (inactive) |  | 
13 | COC(=O)C1CC/C(=N\c2cccc(C(F)(F)F)c2)N1 (stereo not drawn) | > 100 µM (inactive) | > 100 µM (inactive) | > 100 µM (inactive) | > 100 µM (inactive) | > 100 µM (inactive) | > 100 µM (inactive) | > 100 µM | > 100 µM (inactive) | > 100 µM (inactive) | > 100 µM (inactive) | > 100 µM (inactive) | > 100 µM (inactive) | > 100 µM (inactive) |  | > 100 µM (inactive) | > 100 µM (inactive) | > 100 µM (inactive) |  |  | 
14 | CC1SC2(CCCCC2)N(NC(=O)CSc2nc3ccc(Cl)cc3c(=O)n2-c2ccccc2)C1=O (stereo not drawn) |  | 34.4 µM (inactive) | 17.5 µM (inactive) | 22.3 µM (inactive) | 18.8 µM (inactive) | 25.8 µM (inactive) | 18.7 µM | 18 µM (inactive) | 28.8 µM (inactive) | 32.6 µM (inactive) | 17.5 µM (inactive) | 30.8 µM (inactive) | 30.4 µM (inactive) | 14.3 µM (inactive) | 17.3 µM (inactive) | 18 µM (inactive) | 42.5 µM (inactive) | 19.3 µM (inactive) | 15.3 µM (inactive) | 18.3 µM (inactive)
15 | CC1=C2C(=O)O[C@@H](c3ccoc3)[C@]2(C)CCC1 [FRAXINELLONE] | > 100 µM (inactive) | > 100 µM (inactive) |  | 23.1 µM (inactive) | > 100 µM (inactive) | > 100 µM (inactive) | > 100 µM | > 100 µM (inactive) | > 100 µM (inactive) |  | > 100 µM (inactive) | > 100 µM (inactive) | > 100 µM (inactive) | > 100 µM (inactive) | > 100 µM (inactive) | > 100 µM (inactive) | > 100 µM (inactive) |  |  | 
16 | CC1=NN2C(=N)/C(=C/c3ccco3)C(=O)N=C2S1 |  | > 100 µM (inactive) | > 100 µM (inactive) | 65.5 µM (inactive) | 1.15 µM (inactive) | > 100 µM (inactive) | > 100 µM | > 100 µM (inactive) | > 100 µM (inactive) | > 100 µM (inactive) | > 100 µM (inactive) | > 100 µM (inactive) | > 100 µM (inactive) | > 100 µM (inactive) | > 100 µM (inactive) | > 100 µM (inactive) | > 100 µM (inactive) | > 100 µM (inactive) | > 100 µM (inactive) | > 100 µM (inactive)
